Data as given in patent publication US4205076A, “Lipogenesis inhibition by certain esters of substituted benzodioxincarboxylic acids” (Shell Oil Company, priority 1979, dated 1980).

What follows are compounds tested on swine adipose tissue (assay: Inhibition of lipogenesis (incorporation of radioactive carbon from glucose-U-14C into lipid) in swine adipose tissue slices). Conditions: 100 micrograms per milliliter, 37° C., 2 hours, insulin, 5% DMSO, in triplicate.
Type: cell-based
Description: The manner in which they cause this effect is not known with certainty; it is believed that they interfere with the synthesis of fatty acids in the tissues. Their effectiveness for this purpose has been ascertained by immersing samples of swine adipose tissue in a liquid medium containing radioactive glucose and the test chemical for a period of time, then isolating the lipid from the treated tissue and determining the incorporation of the radioactive carbon into lipid by means of scintillation counting techniques. These tests were conducted in swine adipose tissues because in swine, the primary site of lipogenesis--i.e., fatty acid synthesis--appears to be adipose tissue.
Described in more detail, tests were conducted according to the following general procedure:
150 milligrams of slices of swine adipose tissue were incubated at 37° C. for 2 hours with shaking in 3 milliliters of Krebs-Ringer bicarbonate solution containing one-half the normal calcium ion concentration, 60 micromoles of glucose, 0.5 micro-Curie of glucose-U^14 C, and 300 microunits of insulin, and 5% dimethyl sulfoxide (DMSO). The test compounds were added as a solution or suspension in DMSO and were present at a concentration of 100 micrograms per milliliter of the incubation mixture.
The incubation was terminated by addition of 0.25 milliliter of 1 N sulfuric acid. The resulting mixture was extracted with a total of 25 milliliters of chloroform/methanol (2:1 v/v). The extracts were washed according to Folch et al. (J. Biol. Chem. 226, 497-509, (1957)), air dried, and counted in a liquid scintillation counter with 15 milliliters of counting fluid (two parts toluene containing 0.4% w/v New England Nuclear Omnifluor/1 part Triton X-100). The tests were conducted in triplicate and were accompanied by control tests in which all ingredients,proportions and conditions were the same except that no test compound was included. From the data obtained were calculated the percent inhibition of lipid synthesis by the test compounds in each case. The data obtained from the tests are set out in Table 1, as the percent inhibition of lipogenesis compared to the results obtained in the control tests wherein only the test compound was omitted.

Compound | Percent Inhibition (of lipogenesis compared to control) [%]
Ethyl 2,3-dihydro-7(and 6)-(1-(hydroxyimino)ethyl)-1,4-benzodioxin-2-carboxylate [Compound 2] | 94
CCOC(=O)C1COc2ccc(C(C)=NOC)cc2O1 (stereo not drawn) [Compound 3, Ethyl 2,3-dihydro-7-(1-(methoxyimino)ethyl)-1,4-benzodioxin-2-carboxylate] | 52
Ethyl 7(and 6)-acetyl-2,3-dihydro-1,4-benzodioxin-2-carboxylate [Compound 1] | 89
Ethyl 6(and 7)-(2'-methyl-4'-thiazolyl)-2,3-dihydro-1,4-benzodioxin-2-carboxylate [Compound 6] | 79
Ethyl 6(and 7)-(acetylamino)-2,3-dihydro-1,4-benzodioxin-2-carboxylate [Compound 4] | 96
CCOC(=O)C1COc2ccc(C(=O)c3ccccc3)cc2O1 (stereo not drawn) [Compound 5, Ethyl 7-benzoyl-2,3-dihydro-1,4-benzodioxin-2-carboxylate] | 69
